Data from patent US9434711B2 (Janssen Pharmaceutica, NV, priority 2007, dated 2016).
Like-named read-outs stand apart in the source and are kept apart here.

Biological target: canine TRPM8 (Canis lupus familiaris, UniProt Q1A7N1)
Assay: In Vitro Canine TRPM8 Functional Assay (Ca2+ fluorescence, icilin activation)
Assay type: cell-based
Conditions: for IC50: read-out: IC50
In short: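 Canine TRPM8 stably expressed in HEK293; compound added 5 min before icilin challenge (~80% max response), with fluorescent Ca2+ signal tracked throughout.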

[1] = HEK293 cells stably expressing canine TRPM8, icilin activation, eight-point dose-response
[2] = compound at 0.2 μM, canine TRPM8, icilin activation, read-out: % Inh @ 0.2
[3] = 0.2 μM compound, HEK293 cells stably expressing canine TRPM8, icilin activation, read-out: % Inh @ 0.2
[4] = HEK293 cells stably expressing canine TRPM8, icilin activation, average of two or more determinations

Sequence of canine TRPM8 (Q1A7N1 1-1104): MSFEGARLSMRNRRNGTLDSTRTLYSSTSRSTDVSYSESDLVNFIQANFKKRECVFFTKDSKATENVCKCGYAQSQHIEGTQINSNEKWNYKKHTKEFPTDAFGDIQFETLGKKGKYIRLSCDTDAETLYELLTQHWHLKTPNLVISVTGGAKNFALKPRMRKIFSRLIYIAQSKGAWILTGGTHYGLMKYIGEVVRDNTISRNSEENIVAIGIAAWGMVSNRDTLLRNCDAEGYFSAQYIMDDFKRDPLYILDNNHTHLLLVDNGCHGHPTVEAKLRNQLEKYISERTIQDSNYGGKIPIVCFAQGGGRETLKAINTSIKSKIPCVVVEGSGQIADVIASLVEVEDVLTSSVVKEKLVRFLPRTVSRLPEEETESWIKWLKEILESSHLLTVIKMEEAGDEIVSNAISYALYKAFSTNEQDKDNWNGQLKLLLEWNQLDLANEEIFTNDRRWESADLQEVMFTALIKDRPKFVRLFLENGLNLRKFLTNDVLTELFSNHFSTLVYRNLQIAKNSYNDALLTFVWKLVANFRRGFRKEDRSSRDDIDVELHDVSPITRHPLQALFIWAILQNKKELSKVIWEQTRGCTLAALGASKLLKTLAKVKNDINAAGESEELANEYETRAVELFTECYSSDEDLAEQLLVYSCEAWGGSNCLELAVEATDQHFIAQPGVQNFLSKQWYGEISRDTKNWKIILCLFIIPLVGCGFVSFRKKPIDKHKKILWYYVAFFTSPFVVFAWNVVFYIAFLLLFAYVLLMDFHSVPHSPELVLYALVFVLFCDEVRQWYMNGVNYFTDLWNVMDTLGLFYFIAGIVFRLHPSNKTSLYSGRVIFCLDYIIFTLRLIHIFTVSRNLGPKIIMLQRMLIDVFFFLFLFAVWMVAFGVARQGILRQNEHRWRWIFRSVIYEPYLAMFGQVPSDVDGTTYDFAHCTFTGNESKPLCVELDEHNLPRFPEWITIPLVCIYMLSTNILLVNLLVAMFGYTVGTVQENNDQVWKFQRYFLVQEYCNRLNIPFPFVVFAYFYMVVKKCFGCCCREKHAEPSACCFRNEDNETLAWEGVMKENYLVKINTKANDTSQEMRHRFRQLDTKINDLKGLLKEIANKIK

IC50 [1] [nM] | inhibition at 0.2 µM [2] [%] | inhibition at 0.2 µM [3] [%] | IC50 [4] [nM] | Structure (SMILES) | further results
6.7 | 95 |  |  | CCS(=O)(=O)N(Cc1cccc(OC)c1F)c1sc2ccccc2c1C(C)(C)O [Compound 776, N-(2-Fluoro-3-methoxy-benzyl)-N-[3-(1-hydroxy-1-methyl-ethyl)-benzo[b]thiophen-2-yl]-ethanesulfonamide] | 
 | 56 |  |  | Cc1c(N(CCC2CC2)S(=O)(=O)c2ccc(C(=O)N3CCN(C)CC3)cc2)sc2ccccc12 [Compound 777, N-(2-Cyclopropyl-ethyl)-N-(3-methyl-benzo[b]thiophen-2-yl)-4-(4-methyl-piperazine-1-carbonyl)-benzenesulfonamide] | 
107 | 87 |  |  | Cc1c(N(Cc2cccc(OC(F)(F)F)c2)S(=O)(=O)CCCn2ccnc2)sc2ccccc12 [Compound 778, N-(3-Methyl-benzo[b]thiophen-2-yl)-N-(3-trifluoromethoxy-benzyl)-3-imidazol-1-yl-propane-1-sulfonamide] | 
48.7 | 79 |  |  | Cc1c(N(Cc2ccc(F)c(C(F)(F)F)c2)S(=O)(=O)CCCCn2ccnc2)sc2ccccc12 [Compound 779, N-(4-Fluoro-3-trifluoromethyl-benzyl)-N-(3-methyl-benzo[b]thiophen-2-yl)-4-(imidazol-1-yl)-butane-1-sulfonamide] | 
145 | 72 |  |  | CS(=O)(=O)Nc1ccc(S(=O)(=O)N(Cc2ccc(F)c(C(F)(F)F)c2)c2sc3ccccc3c2Cl)c(O)c1 [Compound 780, N-(3-Chloro-benzo[b]thiophen-2-yl)-N-(4-fluoro-3-trifluoromethyl-benzyl)-2-hydroxy-4-methanesulfonylamino-benzenesulfonamide] | 
 | 33 |  |  | Cc1c(N(CCC2CC2)S(=O)(=O)c2ccc(C(=O)N[C@H]3CCNC3)cc2)sc2ccccc12 [Compound 782, (S)-4-[(2-Cyclopropyl-ethyl)-(3-methyl-benzo[b]thiophen-2-yl)-sulfamoyl]-N-pyrrolidin-3-yl-benzamide] | 
 | 38 |  |  | Cc1c(N(CCC2CC2)S(=O)(=O)c2ccc(C(=O)N[C@@H]3CCNC3)cc2)sc2ccccc12 [Compound 783, (R)-4-[(2-Cyclopropyl-ethyl)-(3-methyl-benzo[b]thiophen-2-yl)-sulfamoyl]-N-pyrrolidin-3-yl-benzamide] | 
3.3 | 102 |  |  | Cc1c(N(Cc2ccc(F)c(C(F)(F)F)c2)S(=O)(=O)c2ccc(-c3nsc(=O)[nH]3)cc2)sc2ccccc12 [Compound 784, N-(3-Methyl-benzo[b]thiophen-2-yl)-N-(4-fluoro-3-trifluoromethyl-benzyl)-4-(5-oxo-4,5-dihydro-[1,2,4]thiadiazol-3-yl)-benzenesulfonamide] | 
2.2 | 102 |  |  | Cc1c(N(Cc2ccc(OC(F)(F)F)cc2)S(=O)(=O)c2ccc(-c3nnn[nH]3)cc2)sc2ccccc12 [Compound 785, N-(3-Methyl-benzo[b]thiophen-2-yl)-N-(4-trifluoromethoxy-benzyl)-4-(1H-tetrazol-5-yl)-benzenesulfonamide] | 
14.9 | 102 |  |  | Cc1c(N(CCCCC(F)(F)F)S(=O)(=O)c2ccc(N(C)C)nc2)sc2ccccc12 [Compound 787] | 
25.9 |  |  |  | Cc1c(N(CCCCC(F)(F)F)S(=O)(=O)c2cnccc2N2CCOCC2)sc2ccccc12 [Compound 788, N-(3-Methyl-benzo[b]thiophen-2-yl)-N-(5,5,5-trifluoro-pentyl)-4-morpholino-3-pyridyl-sulfonamide] | 
 | 100 |  |  | Cc1c(N(CCCCC(F)(F)F)S(=O)(=O)c2ccc(N3CCOCC3)nc2)sc2ccccc12 [Compound 788] | 
11.7 | 102 |  |  | Cc1c(N(Cc2ccc(OC(F)(F)F)cc2)S(=O)(=O)c2ccc(N(C)C)nc2)sc2ccccc12 [Compound 789] | 
22 | 101 |  |  | Cc1c(N(Cc2ccc(OC(F)(F)F)cc2)S(=O)(=O)c2ccc(N3CCOCC3)nc2)sc2ccccc12 [Compound 790] | 
23.1 | 95 |  |  | COC(=O)CS(=O)(=O)N(Cc1ccc(F)c(C(F)(F)F)c1)c1sc2ccccc2c1C [Compound 791, N-(4-Fluoro-3-trifluoromethyl-benzyl)-N-(3-methyl-benzo[b]thiophen-2-yl)-carbomethoxy-methanesulfonamide] | 
 | 23 |  |  | Cc1c(N(Cc2ccc(F)c(C(F)(F)F)c2)S(=O)(=O)CC(=O)O)sc2ccccc12 [Compound 792, N-(4-Fluoro-3-trifluoromethyl-benzyl)-N-(3-methyl-benzo[b]thiophen-2-yl)-carboxy-methanesulfonamide] | 

IC50 [1] [nM] | inhibition at 0.2 µM [2] [%] | inhibition at 0.2 µM [3] [%] | IC50 [4] [nM] | Structure (SMILES) | further results
15.5 | 102 |  |  | Cc1c(N(Cc2ccc(F)c(C(F)(F)F)c2)S(=O)(=O)CCO)sc2ccccc12 [Compound 793, N-(4-Fluoro-3-trifluoromethyl-benzyl)-N-(3-methyl-benzo[b]thiophen-2-yl)-2-hydroxy-ethanesulfonamide] | 
29.4 | 101 |  |  | COC(=O)CCS(=O)(=O)N(Cc1ccc(OC(F)(F)F)cc1)c1sc2ccccc2c1C [Compound 794, N-(3-Methyl-benzo[b]thiophen-2-yl)-N-(4-trifluoromethoxy-benzyl)-2-carbomethoxy-ethanesulfonamide] | 
 |  | 100 | 24.6 | Cc1c(N(Cc2ccc(OC(F)(F)F)cc2)S(=O)(=O)CCC(=O)O)sc2ccccc12 [Compound 795, N-(3-Methyl-benzo[b]thiophen-2-yl)-N-(4-trifluoromethoxy-benzyl)-2-carboxy-ethanesulfonamide] | 
 |  | 101 | 24.2 | Cc1c(N(Cc2ccc(OC(F)(F)F)cc2)S(=O)(=O)CCC(C)(C)O)sc2ccccc12 [Compound 796, N-(3-Methyl-benzo[b]thiophen-2-yl)-N-(4-trifluoromethoxy-benzyl)-3-hydroxy-3-methyl-butane-1-sulfonamide] | 
 |  | 102 | 3.9 | Cc1c(N(Cc2ccc(OC(F)(F)F)cc2)S(=O)(=O)c2ccc(N(C)C)cc2)sc2ccccc12 [Compound 799, N-(3-Methyl-benzo[b]thiophen-2-yl)-N-(4-trifluoromethoxy-benzyl)-4-dimethylamino-benzenesulfonamide] | 
 |  | 102 | 6.8 | Cc1c(N(Cc2ccc(OC(F)(F)F)cc2)S(=O)(=O)c2ccc(N3CCOCC3)cc2)sc2ccccc12 [Compound 800, N-(3-Methyl-benzo[b]thiophen-2-yl)-N-(4-trifluoromethoxy-benzyl)-4-morpholino-benzenesulfonamide] | 
 |  | 102 | 2.8 | Cc1c(N(Cc2ccc(OC(F)(F)F)cc2)S(=O)(=O)c2ccc(-c3noc(=O)[nH]3)cc2)sc2ccccc12 [Compound 801, N-(3-Methyl-benzo[b]thiophen-2-yl)-N-(4-trifluoromethoxy-benzyl)-4-(5-oxo-4,5-dihydro-[1,2,4]oxadiazol-3-yl)-benzenesulfonamide] | 
 |  | 101 | 8 | CCS(=O)(=O)N(Cc1cc(F)c(F)c(OC)c1F)c1sc2ccccc2c1C(C)(C)O [Compound 802, N-[3-(1-Hydroxy-1-methyl-ethyl)-benzo[b]thiophen-2-yl]-N-(2,4,5-trifluoro-3-methoxy-benzyl)-ethanesulfonamide] | 
 |  | 101 | 30.8 | C=C(C)c1c(N(Cc2cc(F)c(F)c(OC)c2F)S(=O)(=O)CC)sc2ccccc12 [Compound 803, N-(3-Isopropenyl-benzo[b]thiophen-2-yl)-N-(2,4,5-trifluoro-3-methoxy-benzyl)-ethanesulfonamide] | 
 |  |  | 11.1 | Cc1c(N(CCC2CC2)S(=O)(=O)c2cnccc2-c2nnn[nH]2)sc2ccccc12 [Compound 804, N-(3-Methyl-benzo[b]thiophen-2-yl)-N-(cyclopropyl-ethyl)-4-(1H-tetrazol-5-yl)-pyridin-3-ylsulfonamide] | 
 |  | 102 |  | Cc1c(N(CCC2CC2)S(=O)(=O)c2ccc(-c3nnn[nH]3)nc2)sc2ccccc12 [Compound 804] | 
 |  | 103 | 2.2 | Cc1c(N(Cc2ccc(OC(F)(F)F)cc2)S(=O)(=O)c2ccc(-c3nnn[nH]3)nc2)sc2ccccc12 [Compound 805] | 
 |  |  | 13 | Cc1c(N(CCCCC(F)(F)F)S(=O)(=O)c2cnccc2-c2nnn[nH]2)sc2ccccc12 [Compound 806, N-(3-Methyl-benzo[b]thiophen-2-yl)-N-(5,5,5-trifluoro-pentyl)-4-(1H-tetrazol-5-yl)-pyridin-3-ylsulfonamide] | 
 |  | 102 |  | Cc1c(N(CCCCC(F)(F)F)S(=O)(=O)c2ccc(-c3nnn[nH]3)nc2)sc2ccccc12 [Compound 806] | 
 |  | 103 | 6 | Cc1c(N(CCC2CC2)S(=O)(=O)c2ccc(-c3noc(=O)[nH]3)nc2)sc2ccccc12 [Compound 807] | 
 |  |  | 0.7 | Cc1c(N(Cc2ccc(OC(F)(F)F)cc2)S(=O)(=O)c2cnccc2-c2noc(=O)[nH]2)sc2ccccc12 [Compound 808, N-(3-Methyl-benzo[b]thiophen-2-yl)-N-(4-trifluoromethoxy-benzyl)-4-(5-oxo-4,5-dihydro-[1,2,4]oxadiazol-3-yl)-pyrid-3-ylsulfonamide] | 

Structure (SMILES) | IC50 [1] [nM] | inhibition at 0.2 µM [2] [%] | inhibition at 0.2 µM [3] [%] | IC50 [4] [nM] | further results
CC(C)(O)c1c(N(Cc2ccc(OC(F)(F)F)cc2)S(=O)(=O)c2ccc(C(=O)[O-])cc2)sc2ccccc12.[Na+] [Compound 781, Sodium, N-(3-(1-Hydroxy-1-methyl-ethyl)-benzo[b]thiophen-2-yl)-N-(4-trifluoromethoxy)benzyl-4-carboxy-benzenesulfonamide] | 3 |  |  |  | % Inh @ 0.2 (μM) (compound at 0.2 μM, canine TRPM8, icilin activation): 102%
Cc1c(N(Cc2ccc(F)c(C(F)(F)F)c2)S(=O)(=O)CCBr)sc2ccccc12 [Compound 797, N-(4-Fluoro-3-trifluoromethyl-benzyl)-N-(3-methyl-benzo[b]thiophen-2-yl)-2-bromo-ethane-1-sulfonamide] |  |  |  | 4.8 | inhibition at 0.2 µM (HEK293, read-out: % Inh @ 0.2 (μM)): 102%
